We go through 18 compounds from US10336724B2, “D-amino acid oxidase inhibitors and therapeutic uses thereof” (SyneuRx International (Taiwan) Corp., priority 2017, dated 2019).

Assay [1] has as its target pkDAAO (porcine kidney DAAO) (Sus scrofa (Pig), UniProt P00371). The experiment in a line: pkDAAO (porcine kidney DAAO) activity, D-Proline substrate, OPD OD450. The assay is classed as biochemical. The procedure: The pkDAAO (porcine kidney DAAO) activity was measured by using D-Proine as a substrate to produce hydrogen peroxide (H2O2). The produced H2O2 would be oxidized by peroxidase, and the produced free radicals would further react with 1,2-Phenylenediamine (OPD) reagent. […] The OD450 would be measured to represent the activity of pkDAAO. All compounds were dissolved in DMSO. Each compound was diluted with DMSO in 3 or 4-fold serial dilution to create a 9-point dose response curve. Each sample was added in triplicate, 10 μL/well, into 96-well assay microplate. Positive control wells were added with 10 μL of DMSO. The diluted compounds were incubated with pkDAAO in dark for 10 minutes and then reacted with D-Proline. The final reaction mixture was composed of 0.01 U/mL pkDAAO, 0.03% OPD, 25 U/mL HRP and 40 mM D-Proline in PBS. The reaction plates were then incubated in the dark at room temperature. The OD450 absorbance readout was detected at 0 and 20 minute by Molecular Device Spectra Max Plus reader. The percentage of inhibition values for each well were calculated with the following equation: The percentage of inhibition=(OD450sample, 20 min−OD450sample, 0 min)/(OD450DMSO, 20 min−OD450DMSO, 0 min)×100%
(§1) The nonlinear curve fitting model in GraphPad Prism 5 was used to calculate IC50 value for each compound.

Another assay deals with hDAAO (human DAAO) (Homo sapiens (Human), UniProt P14920). Briefly: hDAAO (human DAAO) activity, D-serine substrate, Amplex Red fluorescence. The class given is biochemical. The method, then:
The hDAAO (human DAAO) activity was measured by using D-serine as a substrate to produce H2O2. The produced H2O2 would be oxidized by peroxidase, and the produced free radicals would further react with Amplex Red reagent to emit fluorescence. The intensity of fluorescence at 590 nm would be measured to represent the activity of hDAAO. All compounds were dissolved in DMSO. Each compound was diluted with DMSO in 3-fold serial dilution to create a 9-point dose response curve. Each sample was added in triplicate, 1 μL/well, into 96-well black plates. Positive control wells were added with 1 μL of DMSO. Then 49 μL of assay buffer (100 mM Tris-HCl, pH 8.5) containing 1.2 ng/mL hDAAO, 900 nM FAD, 0.2 units/mL HRP, and 100 μM Amplex Red was added to each well of the plate using a multichannel pipette. Next, 50 μL of 100 mM D-Serine in assay buffer was added. The reaction plates were then incubated in the dark at room temperature. The fluorescence readout was detected at 0 and 20 minute by Molecular Device Gemini EM fluorescence reader using the following settings: excitation filter 530 nm, and emission filter 590 nm. The percentage of inhibition values for each well was calculated with the following equation: The percentage of inhibition=(fluorescencesample, 20 min−fluorescencesample, 0 min)/(fluorescenceDMSO, 20 min−fluorescenceDMSO, 0 min)×100%
as §1

Structures are written as SMILES.

Chain of hDAAO (human DAAO) (P14920 whole entry): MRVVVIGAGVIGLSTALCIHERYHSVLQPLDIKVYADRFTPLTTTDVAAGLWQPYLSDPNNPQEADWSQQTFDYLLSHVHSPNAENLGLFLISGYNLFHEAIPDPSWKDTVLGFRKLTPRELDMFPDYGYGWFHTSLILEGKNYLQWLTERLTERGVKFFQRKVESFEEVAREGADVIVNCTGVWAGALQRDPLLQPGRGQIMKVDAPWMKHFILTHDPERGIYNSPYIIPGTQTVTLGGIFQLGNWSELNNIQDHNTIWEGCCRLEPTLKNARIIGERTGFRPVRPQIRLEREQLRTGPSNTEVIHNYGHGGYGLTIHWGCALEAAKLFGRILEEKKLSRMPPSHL
Chain of pkDAAO (porcine kidney DAAO) (P00371 whole entry): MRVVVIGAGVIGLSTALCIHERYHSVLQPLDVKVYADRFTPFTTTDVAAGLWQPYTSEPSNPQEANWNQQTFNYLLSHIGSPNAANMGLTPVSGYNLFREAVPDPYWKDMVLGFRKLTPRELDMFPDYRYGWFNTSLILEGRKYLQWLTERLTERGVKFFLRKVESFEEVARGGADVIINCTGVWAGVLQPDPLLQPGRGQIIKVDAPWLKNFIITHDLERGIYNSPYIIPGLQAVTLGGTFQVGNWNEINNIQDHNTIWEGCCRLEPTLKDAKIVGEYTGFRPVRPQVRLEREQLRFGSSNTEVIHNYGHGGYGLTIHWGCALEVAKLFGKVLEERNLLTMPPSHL

A word on the IC50: it is the concentration at which inhibition is half-maximal. A high value points to weaker potency. Regarding `O=C(Oc1coc(CSc2ccc(Cl)cc2)cc1=O)c1cc(CCc2ccc(Cl)cc2)c[nH]1` [Compound 14, 6-(((4-chlorophenyl)thio)methyl)-4-oxo-4H-pyran-3-yl 4-(4-chlorophenethyl)-1H-pyrrole-2-carboxylate], the IC50 in assay [1] is 10000 to 100000 nM; against hDAAO (human DAAO), 1000 to 10000 nM.
On the same counts, the results for `O=C(Oc1cc(Cc2cccc3ccccc23)n[nH]c1=O)c1cc(CCc2ccccc2)n[nH]1` [Compound 62, 6-(naphthalen-1-ylmethyl)-3-oxo-2,3-dihydropyridazin-4-yl 3-phenethyl-1H-pyrazole-5-carboxylate] are 10 to 100 nM and 100 to 1000 nM.
With `O=C(Oc1cc(Cc2cccc3ccccc23)n[nH]c1=O)c1cc(CCc2ccccc2Cl)n[nH]1`, the 50% inhibitory concentration (IC50) in assay [1] was in the range of 10 to 100 nM; against hDAAO (human DAAO) it was 100 to 500 nM.
In the same order, the values of `O=C(Oc1cc(CCc2cccc3ccccc23)n[nH]c1=O)c1cc(CCc2ccccc2)n[nH]1` are 10 to 100 nM and 100 to 500 nM.
On the same counts, the results for `O=C(Oc1cc(CCc2cc(F)cc(F)c2)n[nH]c1=O)c1cc(CCc2ccc(Cl)cc2)c[nH]1` [Compound 56, 6-(3,5-difluorophenethyl)-3-oxo-2,3-dihydropyridazin-4-yl 4-(4-chlorophenethyl)-1H-pyrrole-2-carboxylate] are 10000 to 100000 nM and 1000 to 10000 nM.
For `O=C(Oc1cc2c(Cl)cccc2[nH]c1=O)c1cc(CCc2ccc(Cl)cc2)n[nH]1` [Compound 32, 5-chloro-2-oxo-1,2-dihydroquinolin-3-yl 3-(4-chlorophenethyl)-1H-pyrazole-5-carboxylate], the IC50 was in the range of 100 to 500 nM in assay [1] and 100 to 1000 nM on hDAAO (human DAAO).
With `O=C(Oc1cc(Cc2cccc3ccccc23)n[nH]c1=O)c1cc(CCc2cccc(Cl)c2)n[nH]1` [Compound 67, 6-(naphthalen-1-ylmethyl)-3-oxo-2,3-dihydropyridazin-4-yl 3-(3-chlorophenethyl)-1H-pyrazole-5-carboxylate], the IC50 in assay [1] lay within 10 to 100 nM; against hDAAO (human DAAO), 100 to 500 nM.
In the same order, the values of `O=C(Oc1cc2c(Cl)cccc2[nH]c1=O)c1cc(CCc2ccccc2)n[nH]1` [Compound 27, 5-chloro-2-oxo-1,2-dihydroquinolin-3-yl 3-phenethyl-1H-pyrazole-5-carboxylate] are 100 to 1000 nM and 100 to 500 nM.
On to `O=C(Oc1cc(Cc2cccc3ccccc23)n[nH]c1=O)c1cc(CCc2ccc(F)cc2)n[nH]1` [Compound 72, 6-(naphthalen-1-ylmethyl)-3-oxo-2,3-dihydropyridazin-4-yl 3-(4-fluorophenethyl)-1H-pyrazole-5-carboxylate], for which the IC50 in assay [1] was in the range of 10 to 100 nM; against hDAAO (human DAAO), 100 to 500 nM.
On the same counts, the results for `O=C(Oc1coc(CO)cc1=O)c1cc2occc2[nH]1` [Compound 9, 6-(hydroxymethyl)-4-oxo-4H-pyran-3-yl 4H-furo[3,2-b]pyrrole-5-carboxylate] are 10000 to 100000 nM and 1000 to 10000 nM.
On the same counts, the results for `O=C(Oc1cc(CSc2ccc(Cl)c(Cl)c2)c[nH]c1=O)c1cc(CCc2ccccc2)c[nH]1` [Compound 50, 5-(((3,4-dichlorophenyl)thio)methyl)-2-oxo-1,2-dihydropyridin-3-yl 4-phenethyl-1H-pyrrole-2-carboxylate] are 1000 to 10000 nM and 1000 to 10000 nM.
Regarding `O=C(Oc1cc(Cc2ccc3ccccc3c2)n[nH]c1=O)c1cc(CCc2ccccc2)n[nH]1`, the values for the IC50 (in assay [1]; against hDAAO (human DAAO)) were 10 to 100 nM and 100 to 500 nM, respectively.
Consider `O=C(Oc1cc2c(Cl)cccc2[nH]c1=O)c1cc(CCc2ccc(Cl)cc2)c[nH]1` [Compound 18, 5-chloro-2-oxo-1,2-dihydroquinolin-3-yl 4-(4-chlorophenethyl)-1H-pyrrole-2-carboxylate], for which the figures for the concentration for half-maximal inhibition (IC50) (in assay [1]; against hDAAO (human DAAO)) were 1000 to 10000 nM and 100 to 500 nM, respectively.
In the same order, the values of `O=C(Oc1cc(CCc2cccc3ccccc23)n[nH]c1=O)c1cc(CCc2ccc(Cl)cc2)n[nH]1` are 10 to 100 nM and 100 to 500 nM.
Turning to `O=C(Oc1cc2c(Cl)cccc2[nH]c1=O)c1cc(CCc2ccccc2)c[nH]1` [Compound 23, 5-chloro-2-oxo-1,2-dihydroquinolin-3-yl 4-phenethyl-1H-pyrrole-2-carboxylate], the IC50 in assay [1] is 1000 to 10000 nM; at hDAAO (human DAAO), 100 to 1000 nM.
Regarding `O=C(Oc1cc(CSc2ccc(Cl)c(Cl)c2)c[nH]c1=O)c1cc(CCc2ccccc2)n[nH]1` [Compound 49, 5-(((3,4-dichlorophenyl)thio)methyl)-2-oxo-1,2-dihydropyridin-3-yl 3-phenethyl-1H-pyrazole-5-carboxylate], the concentration for half-maximal inhibition (IC50) in assay [1] lay in the range of 100 to 1000 nM; against hDAAO (human DAAO), 1000 to 10000 nM.
In the case of `O=C(Oc1coc(CO)cc1=O)c1cc(CCc2ccc(Cl)cc2)c[nH]1` [Compound 5, 6-(hydroxymethyl)-4-oxo-4H-pyran-3-yl 4-(4-chlorophenethyl)-1H-pyrrole-2-carboxylate], the half-inhibitory concentration (IC50) (in assay [1]; on hDAAO (human DAAO)) was 10000 to 100000 nM each time.
In the case of `O=C(Oc1cc(Cc2cccc3ccccc23)n[nH]c1=O)c1cc(Cc2ccccc2)n[nH]1` [Compound 77, 6-(naphthalen-1-ylmethyl)-3-oxo-2,3-dihydropyridazin-4-yl 3-benzyl-1H-pyrazole-5-carboxylate], the IC50 in assay [1] lay within 10 to 100 nM; against hDAAO (human DAAO), 100 to 1000 nM.
